Test results reported in patent publication US20250353859A1, “COMPOUNDS AS CCR6 INHIBITORS” (Hoffmann-La Roche Inc., priority 2023, published 2025).

target: T1, human CCR6 (Homo sapiens, UniProt P51684); assay: Human CCR6-CRE reporter assay; assay type: cell-based; set-up: The second construct contained the open reading frame of human CCR6 in the pUNO1 backbone; host or cells: 293FT cells (transient transfection with TransIT-293); settings: 293FT cells transfected with human CCR6 and CRE-luciferase; Forskolin + CCL20, 5 h; relative Log IC50; read-out: CCR6-CRE reporter (converted)
T1 sequence (P51684 1-374): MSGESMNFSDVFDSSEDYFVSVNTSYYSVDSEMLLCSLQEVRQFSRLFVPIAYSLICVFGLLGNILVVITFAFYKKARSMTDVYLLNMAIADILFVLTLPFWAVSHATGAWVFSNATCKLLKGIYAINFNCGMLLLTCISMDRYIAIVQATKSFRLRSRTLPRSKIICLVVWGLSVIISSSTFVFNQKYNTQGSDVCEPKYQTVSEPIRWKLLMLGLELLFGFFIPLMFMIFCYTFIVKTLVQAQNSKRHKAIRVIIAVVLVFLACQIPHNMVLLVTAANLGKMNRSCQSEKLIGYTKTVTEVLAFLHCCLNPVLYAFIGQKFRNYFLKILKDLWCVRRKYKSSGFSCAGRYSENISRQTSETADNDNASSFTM
Experimental: 293FT cells were transfected with 2 constructs using TransIT-293 (Mirus). The first construct (pGL4.29, Promega) expressed the luciferase reporter gene luc2P in response to the binding of cAMP-induced CREB to the CREelement in its promoter. The second construct contained the open reading frame of human CCR6 in the pUNO1 backbone under the control of an enhanced CMV promoter(InVivoGen).48 h after transfection, cells were harvested and diluted to 750,000 cells/ml in culture medium (DMEM, 10% FBS, 1× pen/strep(Gibco 15140)). Compounds were 2.5-fold serially diluted in DMSO. Further dilutions were made in assay medium (DMEM, 10% FBS, 1× pen/strep, 6 μM Forskolin, 6 nM CCL20). 4 μl of the compound solution was added to a white MW384 plate, followed by […] of the cell suspension. Final DMSO concentration in the assay was 0.1%. The MW384 plate was placed in an incubator at 37° C., 5% CO2 for 5 h. Luciferase activity was determined by addition of 24 μl of a 2.5× diluted BriteLite luciferase solution(Perkin Elmer), followed by luminescence measurement using a VICTOR Plate reader (Perkin Elmer). […] The relative Log IC50 was determined with GraphPad Prism 9 using a four-parameter dose-response model.

| IC50 [nM] | SMILES |
| --- | --- |
| 126 | NC(=O)c1cccc(-c2ccc(S(=O)(=O)N3CCC(Nc4ccc(OC(F)(F)F)cc4)CC3)cc2)c1 [Example 5, 4′-[(4-{[4-(trifluoromethoxy)phenyl]Amino}piperidin-1-yl)sulfonyl]-[1,1′-biphenyl]-3-carboxamide] |
| 200 | N#Cc1ccc(-c2ccc(S(=O)(=O)N3CCC(Nc4ccc(OC(F)(F)F)cn4)CC3)cc2)cc1 [Example 7, 4′-[(4-{[5-(trifluoromethoxy)pyridin-2-yl]Amino}piperidin-1-yl)sulfonyl]-[1,1′-biphenyl]-4-carbonitrile] |
| 79.4 | NC(=O)c1cccc(-c2ccc(S(=O)(=O)N3CCC(Nc4ccc(OC(F)(F)F)cn4)CC3)cc2)c1 [Example 9, 4′-[(4-{[5-(trifluoromethoxy)pyridin-2-yl]Amino}piperidin-1-yl)sulfonyl]-[1,1′-biphenyl]-3-carboxamide] |
| 79.4 | Cc1cnc2ccc(-c3ccc(S(=O)(=O)N4CCC(Nc5ccc(OC(F)(F)F)cc5)CC4)cc3)cn12 [Example 16, 1-(4-{3-methylimidazo[1,2-a]pyridin-6-yl}benzenesulfonyl)-N-[4-(trifluoromethoxy)phenyl]piperidin-4-amine] |
| 251 | COCc1nnc2ccc(-c3ccc(S(=O)(=O)N4CCC(Nc5ccc(OC(F)(F)F)cc5)CC4)cc3)cn12 [Example 22, 1-{4-[3-(methoxymethyl)-[1,2,4]triazolo[4,3-a]pyridin-6-yl]benzenesulfonyl}-N-[4-(trifluoromethoxy)phenyl]piperidin-4-amine] |
| 631 | O=S(=O)(c1ccc(-c2ccccc2)cc1)N1CCC(Nc2ccc(OC(F)(F)F)cc2)CC1 [Example 25, 1-{[1,1′-biphenyl]-4-sulfonyl}-N-[4-(trifluoromethoxy)phenyl]piperidin-4-amine] |
| 501 | O=S(=O)(c1ccc(-c2ccccc2)cc1)N1CCC(Nc2ccc(OC(F)F)cc2)CC1 [Example 26, 1-{[1,1′-biphenyl]-4-sulfonyl}-N-[4-(difluoromethoxy)phenyl]piperidin-4-amine] |
| 2510 | CC1CC(Nc2ccc(OC(F)(F)F)cc2)CCN1S(=O)(=O)c1ccc(-c2ccccc2)cc1 (stereo not drawn) [Example 35, 1-{[1,1′-biphenyl]-4-sulfonyl}-2-methyl-N-[4-(trifluoromethoxy)phenyl]piperidin-4-amine] |

Second part, the compound before the results:

| SMILES | IC50 [nM] |
| --- | --- |
| N#Cc1ccc(-c2ccc(S(=O)(=O)N3CCC(Nc4cccc(OC(F)F)c4)CC3)cc2)cc1 [Example 2, 4′-[(4-{[3-(difluoromethoxy)phenyl]Amino}piperidin-1-yl)sulfonyl]-[1,1′-biphenyl]-4-carbonitrile] | 398 |
| O=C1NCc2ccc(-c3ccc(S(=O)(=O)N4CCC(Nc5cccc(OC(F)(F)F)c5)CC4)cc3)cc21 [Example 10, 6-{4-[(4-{[3-(trifluoromethoxy)phenyl]Amino}piperidin-1-yl)sulfonyl]phenyl}-2,3-dihydro-1H-isoindol-1-one] | 3160 |
| Cc1n[nH]c2ccc(-c3ccc(S(=O)(=O)N4CCC(Nc5ccc(OC(F)F)cc5)CC4)cc3)cc12 [Example 27, N-[4-(difluoromethoxy)phenyl]-1-[4-(3-methyl-1H-indazol-5-yl)benzenesulfonyl]piperidin-4-amine] | 200 |
| CC(C)c1cnc2ccc(-c3ccc(S(=O)(=O)N4CCC(Nc5ccc(SC(F)(F)F)cc5)CC4)cc3)cn12 [Example 31, 1-{4-[3-(propan-2-yl)imidazo[1,2-a]pyridin-6-yl]benzenesulfonyl}-N-{4-[(trifluoromethyl)sulfanyl]phenyl}piperidin-4-amine] | 50.1 |
| NC(=O)c1cc(-c2ccc(S(=O)(=O)N3CCC(Nc4ccc(SC(F)(F)F)cc4)CC3)cc2)ccn1 [Example 34, 4-(4-{[4-({4-[(trifluoromethyl)sulfanyl]phenyl}Amino)piperidin-1-yl]sulfonyl}phenyl)pyridine-2-carboxamide] | 63.1 |

same assay, conditions: scaffold variant X = O, R1 = CF3; read-out: Activity in human CCR6-CRE reporter assay

| IC50 [nM] | SMILES |
| --- | --- |
| 150 | O=S(=O)(c1ccc(-c2ccc3nccn3c2)cc1)N1CCC(Nc2ccc(OC(F)(F)F)cn2)CC1 [Example 12, N-[1-(4-{imidazo[1,2-a]pyridin-6-yl}benzenesulfonyl)piperidin-4-yl]-5-(trifluoromethoxy)pyridin-2-amine] |
| 1100 | O=S(=O)(c1ccc(-c2ccccc2)cc1)N1CCC(Nc2ccc(OC(F)(F)F)cc2)CC1 [Example 25, 1-{[1,1′-biphenyl]-4-sulfonyl}-N-[4-(trifluoromethoxy)phenyl]piperidin-4-amine] |
